# Measurements as given in patent US20140243403A1, “TREATING COLORECTAL, PANCREATIC, AND LUNG CANCER” (The General Hospital Corporation, priority 2011, published 2014).
# Columns and labels:
# [1] = tested on: KRAS mutant pancreatic ductal adenocarcinoma (PDAC) cells; experiment: Sensitivity of KRAS mutant PDAC cell lines; assay type: cell-based; conditions: 5 KRAS mutant PDAC cell lines, APC wild-type
# Method: (B) 5Z-7-oxozeaenol IC50 values for KRAS mutant PDAC and NSCLC cell lines.
# (§1) To determine if sensitivity to TAK1 inhibition is specific to colon cancer-derived cell lines, sensitivity to 5Z-7-oxozeaenol was assessed in 5 KRAS mutant pancreatic ductal adenocarcinoma (PDAC) and 4 non-small cell lung cancer (NSCLC) cells, all of which are APC wild-type (FIG. 9B).
# CoCM-1 cells = experiment: Cellular proliferation and viability, CRC cell line panel; assay type: cell-based, human; conditions: KRAS WT, BRAF WT, APC WT, CTNNB1 WT, 3 days post-treatment
# Method: (§2) (A) IC50 values (μM) for effects on cellular proliferation and viability with the TAK1 kinase inhibitor 5z-7-oxozeaenol in a panel of colon cancer cell lines that have been genotyped as KRAS mutant (KRAS-independent—circles or KRAS-dependent—squares), BRAF mutant (triangles) or wild-type for both KRAS and BRAF (OTHER—diamonds). Effects on growth were measured 3 days post-treatment. Data are represented as the mean of 3 independent experiments and error bars indicate the median±interquartile range. *denotes p<0.00001; n.s.—not significant.
# (§3) To further validate TAK1 as a candidate therapeutic target in this context, a potent and selective TAK1 kinase inhibitor, 5Z-7-oxozeaenol (Rawlins et al., 1999), was used. Sensitivity to 5Z-7-oxozeaenol was tested in a panel of 47 colon cancer cell lines with various genotypes (FIGS. 3A and 9A). KRAS and BRAF genotypes were either procured from the Sanger Institute's Catalog of Somatic Mutations (COSMIC) or determined by targeted resequencing (Table 2). KRAS mutation status was determined as described above; the same methods were used to determine the mutation states of BRAF. BRAF exon15 was sequenced with TCATAATGCTTGCTCTGATAGGA (forward; SEQ ID NO:3) and GGCCAAAAATTTAATCAGTGG (reverse; SEQ ID NO:4).
# Hs 257.T cells = experiment: as above; assay type: cell-based, human; conditions: KRAS G13D, BRAF WT, 3 days post-treatment
# Method: as §2, §3
# HT55 cells = experiment: as above; assay type: cell-based, human; conditions: KRAS WT, BRAF WT, APC del, CTNNB1 WT, 3 days post-treatment
# Method: as §2, §3
# Gp5D cells = experiment: as above; assay type: cell-based, human; conditions: KRAS G12D (KRAS-dependent), BRAF WT, APC del, CTNNB1 WT, 3 days post-treatment
# Method: as §2, §3
# C170 cells = experiment: as above; assay type: cell-based, human; conditions: KRAS G13D (KRAS-dependent), BRAF WT, CTNNB1 WT, 3 days post-treatment
# Method: as §2, §3
# DLD-1 cells = experiment: as above; assay type: cell-based, human; conditions: KRAS G13D, BRAF WT, APC del, CTNNB1 WT, 3 days post-treatment
# Method: as §2, §3
# LoVo cells = experiment: as above; assay type: cell-based, human; conditions: KRAS G13D (KRAS-dependent), BRAF WT, APC del, CTNNB1 WT, 3 days post-treatment
# Method: as §2, §3
# C2BBe1 cells = experiment: as above; assay type: cell-based, human; conditions: KRAS WT, BRAF WT, APC del, CTNNB1 WT, 3 days post-treatment
# Method: as §2, §3
# HCT-8 cells = experiment: as above; assay type: cell-based, human; conditions: KRAS G13D, BRAF WT, APC del, CTNNB1 WT, 3 days post-treatment
# Method: as §2, §3
# COLO-678 cells = experiment: as above; assay type: cell-based, human; conditions: KRAS G12D (KRAS-dependent), BRAF WT, APC del, CTNNB1 WT, 3 days post-treatment
# Method: as §2, §3
# SW1116 cells = experiment: as above; assay type: cell-based, human; conditions: KRAS G12A (KRAS-dependent), BRAF WT, APC del, CTNNB1 WT, 3 days post-treatment
# Method: as §2, §3
# SW48 cells = experiment: as above; assay type: cell-based, human; conditions: KRAS WT, BRAF WT, APC WT, CTNNB1 S33Y, 3 days post-treatment
# Method: as §2, §3
# CL-11 cells = experiment: as above; assay type: cell-based, human; conditions: KRAS V14I (KRAS-dependent), BRAF WT, CTNNB1 WT, 3 days post-treatment
# Method: as §2, §3
# LS-180 cells = experiment: as above; assay type: cell-based, human; conditions: KRAS G12D, BRAF WT, APC WT, CTNNB1 S45A, 3 days post-treatment
# Method: as §2, §3
# HCT-116 cells = experiment: as above; assay type: cell-based, human; conditions: KRAS G13D, BRAF WT, APC WT, CTNNB1 S45del, 3 days post-treatment
# Method: as §2, §3
# COLO-741 cells = experiment: as above; assay type: cell-based, human; conditions: KRAS WT, BRAF V600E, 3 days post-treatment
# Method: as §2, §3
# LS-174T cells = experiment: as above; assay type: cell-based, human; conditions: KRAS G12D, BRAF WT, APC WT, CTNNB1 S45A, 3 days post-treatment
# Method: as §2, §3
# T84 cells = experiment: as above; assay type: cell-based, human; conditions: KRAS G13D, BRAF WT, APC del, CTNNB1 WT, 3 days post-treatment
# Method: as §2, §3
# Hs 1.Int cells = experiment: as above; assay type: cell-based, human; conditions: KRAS WT, BRAF WT, 3 days post-treatment
# Method: as §2, §3
# HRT-18 cells = experiment: as above; assay type: cell-based, human; conditions: KRAS G13D, BRAF WT, APC del, CTNNB1 WT, 3 days post-treatment
# Method: as §2, §3
# SW1417 cells = experiment: as above; assay type: cell-based, human; conditions: KRAS WT, BRAF V600E, APC del, CTNNB1 WT, 3 days post-treatment
# Method: as §2, §3
# COLO-206F cells = experiment: as above; assay type: cell-based, human; conditions: KRAS WT, BRAF V600E, 3 days post-treatment
# Method: as §2, §3
# H630 cells = experiment: as above; assay type: cell-based, human; conditions: KRAS WT, BRAF WT, APC del, CTNNB1 WT, 3 days post-treatment
# Method: as §2, §3
# MCF10A = experiment: Sensitivity of non-transformed epithelial cell line; assay type: cell-based
# Method: (§4) (A) 5Z-7-oxozeaenol IC50 values for colorectal cancer cell lines of various genotypes as well as 2 “normal” epithelial cell lines, MCF10A and MDCK (light gray bars). Data are represented as the mean of 3 independent experiments+/−SEM.
# as §1
# MDCK = experiment: as above; assay type: cell-based
# Method: as §4, §1
smiles,measurement,setting,value
COc1cc(O)c2c(c1)/C=C/C[C@H](O)[C@H](O)C(=O)/C=C\C[C@H](C)OC2=O [5Z-7-oxozeaenol],sensitivity to 5Z-7-oxozeaenol,[1],largely refractory
same,IC50,CoCM-1 cells,926 nM
same,IC50,Hs 257.T cells,3200 nM
same,IC50,HT55 cells,1540 nM
same,IC50,Gp5D cells,1770 nM
same,IC50,C170 cells,1070 nM
same,IC50,DLD-1 cells,8230 nM
same,IC50,LoVo cells,106 nM
same,IC50,C2BBe1 cells,9320 nM
same,IC50,HCT-8 cells,47300 nM
same,IC50,COLO-678 cells,774 nM
same,IC50,SW1116 cells,122 nM
same,IC50,SW48 cells,1940 nM
same,IC50,CL-11 cells,1160 nM
same,IC50,LS-180 cells,6740 nM
same,IC50,HCT-116 cells,2380 nM
same,IC50,COLO-741 cells,1820 nM
same,IC50,LS-174T cells,6230 nM
same,IC50,T84 cells,2810 nM
same,IC50,Hs 1.Int cells,5640 nM
same,IC50,HRT-18 cells,60000 nM
same,IC50,SW1417 cells,1240 nM
same,IC50,COLO-206F cells,509 nM
same,IC50,H630 cells,4480 nM
same,IC50,MCF10A,5500 nM
same,IC50,MDCK,22000 nM
